From US20140005163A1 (NOVARTIS AG, priority 2010, published 2014)
pIC50: −log10 of the molar value.

Legend:
mTOR = molecular target: T1, mTOR (Homo sapiens, UniProt P42345); assay: Biochemical assay for m-TOR by TR-FRET; conditions: 8 μM ATP, 400 nM GFP-4EBP1, 0.5 nM mTOR
T1 construct: purchased Invitrogen Corporation (Carlsbad/CA, USA) PV4753
Outline: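 Steps: ATP (8 μM final) plus GFP-4EBP1 (400 nM final) combined with mTOR (0.5 nM final), incubated at rt; buffer HEPES pH 7.5 with 10 mM MnCl2, NaCl, EGTA, DTT. Then stopped with EDTA/Tb3+-anti-p4EBP1 pT46 Ab (0.5 nM). Plates read after 15 min.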

[1] = tested on: PKB Ser473 phosphorylation in Rat1-myr-HA-p110 delta cells; assay: Reverse protein array assay, PKB Ser473 phosphorylation in Rat1-myr-p110 delta cells; type: cell-based; conditions: read-out: p-PKB IC50
Outline: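 Measured: PKB Ser473 phosphorylation by reverse protein array in Rat1 cells expressing myr-HA-p110 alpha, beta or delta, after 30 min compound treatment at 37 °C with 0.2% DMSO vehicle.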

[2] = tested on: S6 Ribosomal Protein phosphorylation Ser235/236 in TSC1 null mouse embryo fibroblast (MEF) cells; assay: Reverse protein array assay, S6 Ribosomal Protein phosphorylation Ser235/236 in TSC1 null MEF cells; type: cell-based; conditions: 1 h, pS6 ribosomal protein Ser235/236, 60 minutes incubation, read-out: p-S6 IC50
Outline: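 TSC1−/− MEFs, seeded and held ≥20 h at 37 °C/5% CO2, were exposed to 8-step serial compound dilutions (0.02% DMSO final; DMSO vehicle control) for 60 min at 37 °C. Cells were then lysed on ice for 10 min and lysates spotted onto reverse protein array chips.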

T1 sequence (P42345 1360-2549 limits assumed): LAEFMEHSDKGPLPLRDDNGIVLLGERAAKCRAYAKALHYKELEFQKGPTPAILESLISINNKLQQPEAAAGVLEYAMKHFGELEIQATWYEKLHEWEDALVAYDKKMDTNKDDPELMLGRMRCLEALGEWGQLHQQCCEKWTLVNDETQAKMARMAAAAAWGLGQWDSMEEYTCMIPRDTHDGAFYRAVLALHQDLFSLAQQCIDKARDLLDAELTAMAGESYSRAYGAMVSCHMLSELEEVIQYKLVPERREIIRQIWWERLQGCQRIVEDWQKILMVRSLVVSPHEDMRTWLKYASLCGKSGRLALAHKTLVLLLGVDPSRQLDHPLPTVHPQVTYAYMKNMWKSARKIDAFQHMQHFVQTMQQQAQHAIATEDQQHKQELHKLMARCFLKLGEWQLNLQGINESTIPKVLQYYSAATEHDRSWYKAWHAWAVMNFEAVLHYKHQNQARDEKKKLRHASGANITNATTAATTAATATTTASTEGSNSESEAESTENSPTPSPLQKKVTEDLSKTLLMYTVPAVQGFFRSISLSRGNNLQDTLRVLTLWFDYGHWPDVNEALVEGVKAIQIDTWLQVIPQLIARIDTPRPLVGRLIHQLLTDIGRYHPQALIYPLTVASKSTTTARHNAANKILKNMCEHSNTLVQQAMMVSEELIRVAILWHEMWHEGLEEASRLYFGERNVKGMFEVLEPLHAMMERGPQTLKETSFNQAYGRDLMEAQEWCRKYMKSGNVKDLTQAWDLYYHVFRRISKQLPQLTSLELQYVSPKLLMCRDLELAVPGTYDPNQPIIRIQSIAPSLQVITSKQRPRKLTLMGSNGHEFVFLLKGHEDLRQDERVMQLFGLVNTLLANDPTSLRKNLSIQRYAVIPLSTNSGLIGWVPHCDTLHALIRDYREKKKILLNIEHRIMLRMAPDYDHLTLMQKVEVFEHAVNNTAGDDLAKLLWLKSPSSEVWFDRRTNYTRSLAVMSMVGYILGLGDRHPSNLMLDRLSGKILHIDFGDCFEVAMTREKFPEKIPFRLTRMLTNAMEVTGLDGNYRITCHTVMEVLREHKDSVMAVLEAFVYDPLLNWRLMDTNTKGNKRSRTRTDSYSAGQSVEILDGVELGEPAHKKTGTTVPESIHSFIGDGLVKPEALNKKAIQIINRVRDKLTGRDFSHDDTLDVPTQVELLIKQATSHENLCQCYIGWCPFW

Structure (SMILES)	pIC50 (mTOR)	pIC50 [1]	pIC50 [2]
Cc1nn(C(C)C)cc1-n1c(=O)n(C)c2cnc3ccc(-c4cncc(N)c4)cc3c21 [Example 45.3, 8-(5-Amino-pyridin-3-yl)-1-(1-isopropyl-3-methyl-1H-pyrazol-4-yl)-3-methyl-1,3-dihydro-imidazo[4,5-c]quinolin-2-one]	8.15	6.67	7.34
Cc1nn(C)cc1-n1c(=O)n(C)c2cnc3ccc(-c4ccc(-n5cccn5)cc4)cc3c21 [Example 51.1, 1-(1,3-Dimethyl-1H-pyrazol-4-yl)-3-methyl-8-(4-pyrazol-1-yl-phenyl)-1,3-dihydro-imidazo[4,5-c]quinolin-2-one]	7.96	7.54	8.30
CCOc1cncc(-c2ccc3ncc4c(c3c2)n(-c2cn(CC(=O)N(C)C)nc2C)c(=O)n4C)c1 [Example 56.2, 2-{4-[8-(5-Ethoxy-pyridin-3-yl)-3-methyl-2-oxo-2,3-dihydro-imidazo[4,5-c]quinolin-1-yl]-3-methyl-pyrazol-1-yl}-N,N-dimethyl-acetamide]	7.28	6.33	8.00
Cc1cnn(C)c1-n1c(=O)n(C)c2cnc3ccc(-c4cncc(OC(C)C)c4)cc3c21 [Example 58.3, 1-(2,4-Dimethyl-2H-pyrazol-3-yl)-8-(5-isopropoxy-pyridin-3-yl)-3-methyl-1,3-dihydro-imidazo[4,5-c]quinolin-2-one]	6.25	6.24	6.76
COCCOc1cncc(-c2ccc3ncc4c(c3c2)n(-c2cn(C)nc2Cl)c(=O)n4C)c1 [Example 59.2, 1-(3-Chloro-1-methyl-1H-pyrazol-4-yl)-8-[5-(2-methoxy-ethoxy)-pyridin-3-yl]-3-methyl-1,3-dihydro-imidazo[4,5-c]quinolin-2-one]	7.59	7.16	9.00
CCOc1ncc(-c2ccc3ncc4c(c3c2)n(-c2cn(C)nc2C)c(=O)n4C)cc1N(C)C(C)=O [Example 63, N-{5-[1-(1,3-Dimethyl-1H-pyrazol-4-yl)-3-methyl-2-oxo-2,3-dihydro-1H-imidazo[4,5-c]quinolin-8-yl]-2-ethoxy-pyridin-3-yl}-N-methyl-acetamide]	6.51	6.45	7.87
CCOc1ncc(-c2ccc3ncc4c(c3c2)n(-c2cn(C)nc2C)c(=O)n4C)cc1NC(C)=O [Example 65, N-{5-[1-(1,3-Dimethyl-1H-pyrazol-4-yl)-3-methyl-2-oxo-2,3-dihydro-1H-imidazo[4,5-c]quinolin-8-yl]-2-ethoxy-pyridin-3-yl}-acetamide]	7.24	6.99	7.18
Cc1ncc(-c2ccc3ncc4c(c3c2)n(-c2cn(C)nc2C)c(=O)n4C)cc1NS(C)(=O)=O [Example 76, N-{5-[1-(1,3-Dimethyl-1H-pyrazol-4-yl)-3-methyl-2-oxo-2,3-dihydro-1H-imidazo[4,5-c]quinolin-8-yl]-2-methyl-pyridin-3-yl}-methanesulfonamide]	8.30	6.41	6.70
CCOc1cc(-c2ccc3ncc4c(c3c2)n(-c2c(C)nn(CC(=O)N(C)C)c2C)c(=O)n4C)cnc1C [Example 85.3, 2-{4-[8-(5-Ethoxy-6-methyl-pyridin-3-yl)-3-methyl-2-oxo-2,3-dihydro-imidazo[4,5-c]quinolin-1-yl]-3,5-dimethyl-pyrazol-1-yl}-N,N-dimethyl-acetamide]	6.48	6.13	6.95
CCNc1cc(-c2ccc3ncc4c(c3c2)n(-c2cn(C)nc2Cl)c(=O)n4C)cnc1C [Example 87.2, 1-(3-Chloro-1-methyl-1H-pyrazol-4-yl)-8-(5-ethylamino-6-methyl-pyridin-3-yl)-3-methyl-1,3-dihydro-imidazo[4,5-c]quinolin-2-one]	> 8.52	> 8.30	9.00
CCNc1cc(-c2ccc3ncc4c(c3c2)n(-c2cn(CC)nc2C)c(=O)n4C)cnc1C [Example 87.3, 8-(5-Ethylamino-6-methyl-pyridin-3-yl)-1-(1-ethyl-3-methyl-1H-pyrazol-4-yl)-3-methyl-1,3-dihydro-imidazo[4,5-c]quinolin-2-one]	> 8.52	8.15	8.22
COc1ncc(-c2ccc3ncc4c(c3c2)n(-c2cn(C)nc2Cl)c(=O)n4C)cc1N [Example 89, 8-(5-Amino-6-methoxy-pyridin-3-yl)-1-(3-chloro-1-methyl-1H-pyrazol-4-yl)-3-methyl-1,3-dihydro-imidazo[4,5-c]quinolin-2-one]	8.52	8.15	> 9.30
CCN(C)c1ccc(-c2ccc3ncc4c(c3c2)n(-c2cn(C)nc2C)c(=O)n4C)cn1 [Example 98.1, 1-(1,3-Dimethyl-1H-pyrazol-4-yl)-8-[6-(ethyl-methyl-amino)-pyridin-3-yl]-3-methyl-1,3-dihydro-imidazo[4,5-c]quinolin-2-one]	7.70	7.38	8.52
COC(=O)c1ccc(-c2ccc3ncc4c(c3c2)n(-c2cn(C)nc2C)c(=O)n4C)cn1 [Example 100, 5-[1-(1,3-Dimethyl-1H-pyrazol-4-yl)-3-methyl-2-oxo-2,3-dihydro-1H-imidazo[4,5-c]quinolin-8-yl]-pyridine-2-carboxylic acid methyl ester]	8.22	7.37	8.40
Cc1nn(C)cc1-n1c(=O)n(C)c2cnc3ccc(-c4ccc(OCCCO)nc4)cc3c21 [Example 108, 1-(1,3-Dimethyl-1H-pyrazol-4-yl)-8-[6-(3-hydroxy-propoxy)-pyridin-3-yl]-3-methyl-1,3-dihydro-imidazo[4,5-c]quinolin-2-one]	7.22	6.40	7.77
COc1ccc(-c2ccc3ncc4[nH]c(=O)n(-c5cn(C)nc5C)c4c3c2)cn1 [Example 109, 1-(1,3-Dimethyl-1H-pyrazol-4-yl)-8-(6-methoxy-pyridin-3-yl)-1,3-dihydro-imidazo[4,5-c]quinolin-2-one]	7.96	6.92	7.96
Cc1nn(C)cc1-n1c(=O)n(C)c2cnc3ccc(-c4cnc5c(ccn5C)c4)cc3c21 [Example 116, 1-(1,3-Dimethyl-1H-pyrazol-4-yl)-3-methyl-8-(1-methyl-1H-pyrrolo[2,3-b]pyridin-5-yl)-1,3-dihydro-imidazo[4,5-c]quinolin-2-one]	7.82	7.47	8.22
CNC(=O)c1cc(-c2ccc3ncc4c(c3c2)n(-c2cn(C)nc2C)c(=O)n4C)cnc1OC [Example 125.1, 5-[1-(1,3-Dimethyl-1H-pyrazol-4-yl)-3-methyl-2-oxo-2,3-dihydro-1H-imidazo[4,5-c]quinolin-8-yl]-2-methoxy-N-methyl-nicotinamide]	7.29	7.04	8.70
Cc1nn(C)cc1-n1c(=O)n(C)c2cnc3ccc(-c4ccc(N5CCNCC5)nc4)cc3c21 [Example 126, 1-(1,3-Dimethyl-1H-pyrazol-4-yl)-3-methyl-8-(6-piperazin-1-yl-pyridin-3-yl)-1,3-dihydro-imidazo[4,5-c]quinolin-2-one]	7.01	6.58	8.27
